Source: patent US7666901B2, “Analogs of 17-hydroxywortmannin as PI3K inhibitors” (Wyeth, priority 2004, dated 2010)

Columns and labels:
PI3K = test system: T1, PI3K; experiment: Fluorescence polarization assay for PI3K; type: biochemical
T1 construct: PI3K FP IC50
Summary of the method: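 PI3K was preincubated with compound at 1% DMSO final, then reacted with PIP2/ATP substrate for 30-60 min. The reaction was stopped with a detector mix giving 10 nM red probe and 70 nM GST-GRP. Fluorescence polarization (mP, Tamra filters) was read 30-90 min later and IC50 determined.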

[1] = test system: PTEN-negative breast tumor cell lines; experiment: Tumor cell growth assay, combination with CCI-779, PTEN-negative breast lines; type: cell-based, human; conditions: compound 4 at 0.1 μg/ml
Description: (§1) Human tumor cell are all obtained from ATCC, and are cultured using standard cell culture methods. Cells are plated in 96-well culture plates at 1000 to 3000 cells per well. One day following plating, cells are treated with various doses of PI3K inhibitor Compound 4 or Compound 5 alone or with a low constant dose of MEK inhibitor 2-(2-chloro-4-iodoanilino)-N-(cycloprorylmethoxy-3,4-difluobenzamide) (1 μg/ml) or UO126 (5 μg/ml). UO126 is also known as 1,4-diamino-2,3-dicyano-1,4-bis[2-aminophenylthio]butadiene. In some experiments, cells are treated alone with various doses of the MEK inhibitor (2-(2-chloro-4-iodoanilino)-N-(cycloprorylmethoxy-3,4-difluobenzamide)), or HER2/neu inhibitor HKI-272, or mTOR inhibitor CCI-779, or with a low constant dose of Compound 4 (0.1 μg/ml). […] Three days after drug treatment, viable cell densities are determined by metabolic conversion (by viable cells) of the dye MTS, an established cell proliferation assay. […] The MTS assay results are read in a 96-well plate reader by measuring absorbance at 490 nm. The effect of each treatment is calculated as percent of control growth relative to the vehicle DMSO-treated cells grown in the same culture plate. […]

MDA-MB-231 breast cells = experiment: Tumor cell growth assay, combination with CCI-779, MDA-MB-231; type: cell-based, human; conditions: compound 4 at 0.1 μg/ml
Description: as §1

HCT116 cells = experiment: Apoptosis assay (Apo-ONE Caspase-3/7), HCT116; type: cell-based, human
Description: Cells are plated in a 96-well plate at a density of 3000 cells per well. 24 hr later cells are treated with single agent or combination as indicated. Apoptosis is measured at 24 hr and 48 hr post drug treatment by Apo-ONE Caspase-3/7 assay kit (cat # G7791, Promega Corp.) following the protocol provided by the vendor. Assay mix is added to cells and incubated at room temperature for 3 hours with gentle mixing using a plate shaker. The fluorescence of each well is read using the Victor Wallac Plate Reader. Each experimental plate contains blank wells (without cells) as background fluorescence that is subtracted from all wells to obtain experimental values. Data are expressed as relative fluorescent units (RFLU) or as Apo-ONE units.

[2] = test system: colon carcinoma, NSCLC, DU145 and MDA231 cell lines; experiment: Tumor cell growth assay, combination with MEK inhibitors, tumor line panel; type: cell-based, human; conditions: HCT116, HT29, SW620, SW480, LS-174T, Caco2, Lovo, A549, H157, DU145, MDA231
Description: as §1

[3] = test system: DU145 (human prostate carcinoma/lymphocytic leukemia); experiment: Cell proliferation (MTS) assay, DU145; type: cell-based; conditions: three days treatment
Summary of the method: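 Cells plated at about 3000 per well in RPMI-1640/10% FBS were dosed with compound one day later. Viability was read by MTS conversion (absorbance 490 nm, 1–2 h) three days after treatment began. Effect is expressed as percent of vehicle-treated growth on the same plate.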

HCT116 colon tumor cells = experiment: Tumor cell growth assay, combination with MEK inhibitors, HCT116; type: cell-based, human; conditions: MEK inhibitor at low constant dose
Description: as §1

COC[C@H]1OC(=O)/C(=C/N(CCO)C(C)(C)C)C2=C(O)C(=O)C3=C([C@H](OC(C)=O)C[C@@]4(C)C3CC[C@@H]4O)[C@]21C (stereo partly drawn) [Compound 4, (1E,4S,4aR,5R,6aS,7S)-1-{[tert-butyl(2-hydroxyethyl)amino]methylene}-7,11-dihydroxy-4-(methoxymethyl)-4a,6a-dimethyl-2,10-dioxo-1,2,4,4a,5,6,6a,7,8,9,9a,10-dodecahydroindeno[4,5-h]isochromen-5-yl acetate]
PI3K FP IC50 (PI3K; Table 1): 0.596 µg/mL
IC50 (PI3K; Table 2): 1000 nM
growth inhibition in combination with mTOR inhibitor CCI-779 [1]: additive growth inhibition
growth inhibition in combination with mTOR inhibitor CCI-779 ([1]; listed as compound 4): synergistically inhibited growth
growth inhibition in combination with mTOR inhibitor CCI-779 (MDA-MB-231 breast cells): synergistically inhibited growth
induction of apoptosis in combination with MEK inhibitor 2-(2-chloro-4-iodoanilino)-N-(cycloprorylmethoxy-3,4-difluobenzamide) (HCT116 cells): synergistic induction of apoptosis
growth inhibition in combination with MEK inhibitors UO126 and 2-(2-chloro-4-iodoanilino)-N-(cycloprorylmethoxy-3,4-difluobenzamide) [2]: broad synergistic growth inhibition
DU145 IC50 ([3]; Table 1): 1.5 µg/mL
DU145 IC50 ([3]; Table 2): 1 µg/mL
growth inhibition in combination with MEK inhibitors (HCT116 colon tumor cells): synergistically inhibited growth
